Test system: PD-1/PD-L1 interaction, Jurkat cells overexpressing PD-1 with CHO-K1 cells overexpressing TCR activator and PD-L1
Experiment: Cell-surface PD-L1/PD-1 immune checkpoint interaction assay (NFAT-luciferase reporter)
Type: cell-based
Conditions: control antibody; increase in luciferase reporter; fit of Hill equation; mean ± SD from three independent experiments
Description: CHO-K1 expressing the TCR activator and PD-L1 and Jurkat T cells carrying an NFAT-dependent luciferase gene and overexpressing PD-1 were obtained from Promega. The cells were cultured in RPMI 1640 medium supplemented with 10% FBS with hygromycin B (50 µg/mL) and G418 (250 µg/mL) at 37 °C with 5% CO2.
24 h before the experiment, the CHO-K1 cells were seeded on a 96-well plate in an amount of 10,000 cells/well. 2.5-fold serial dilutions of p104 were prepared in DMSO followed by 1000× dilution in the assay buffer (RPMI 1640, 1% FBS). The culture medium was replaced with the assay buffer containing 0.02–250 µM of p104. The Jurkat cells in the amount of 50,000 cells/well were added and co-cultured for 3 h in standard conditions. Luminescence was determined using Bio-Glo Assay reagent (Promega, Madison, WI, USA) following manufacturer protocol. Data were normalized at vehicle-treated control.

## Atezolizumab: FDA-approved therapeutic monoclonal antibody targeting PD-L1
  EC50: 3.4 ± 0.2 nM

From PMC8401550, “Structural Characterization of a Macrocyclic Peptide Modulator of the PD-1/PD-L1 Immune Checkpoint Axis” (Molecules, 2021)
